Data: patent US9675715B2, “Contrast agent for photoacoustic imaging” (CANON KABUSHIKI KAISHA, priority 2012, dated 2017)
Entries after “also recorded” stand apart in the source; their conditions may differ.

Assays:
[1] = Hydrodynamic average particle size by dynamic light scattering; assay type: physicochemical; conditions: DLS-8000
Excerpt: In this embodiment, the particle size of the particles may be determined by measuring the hydrodynamic average particle size using the dynamic light scattering (DLS) method with a dynamic light scattering spectrophotometer (DLS-8000, manufactured by Otsuka Electronics Co., Ltd).
The ICG-encapsulating micellar particles refer to micellar particles in which ICG is contained in surfactant micelles by a known emulsification technique.

N87 cell line tumor = assay: Amount transferred into tumor mass, fluorescence imaging of N87 tumor-bearing mice; assay type: in vivo, mouse; conditions: 1 day after administration, fluorescence ROI of tumor site, relative to ROI value of ICG
Experimental: The tumor-bearing mice were prepared by subcutaneously implanting a human gastric cancer cell line (N87) or a human cervical cancer cell line (HeLa) into nude mice. Then 130 nmol of a contrast agent in terms of the amount of the dye was administered into each of the tumor-bearing mice. […] As a comparative example, fluorescence imaging of the tumor-bearing mice was performed 1 day after the administration. Fluorescence imaging was performed with IVIS (registered trademark) Imaging System to measure fluorescence intensity in a region of interest (ROI) of the tumor site.
The tumor accumulation 1 day after the administration was evaluated by fluorescence. The accumulation in ROI of the tumor site was calculated.

[2] = test system: sentinel lymph node (mouse popliteal lymph node); assay: Photoacoustic imaging of sentinel lymph node after subcutaneous plantar administration; assay type: in vivo; conditions: photoacoustic imaging 1 day after subcutaneous administration into plantar surface of nude mouse, 130 nmol dye
Experimental: (§1) A commercially available photoacoustic imaging apparatus (Nexus128, manufactured by Endra Inc.) was used. Photoacoustic signals were measured at predetermined timings before and after the administration of a prepared contrast agent for PAI, and three-dimensional reconstruction data was acquired for each timing. The photoacoustic signal intensity in a region of interest (ROI) was measured on the basis of the resulting three-dimensional reconstruction data using software (GEHC MICROVIEW, GE Healthcare) or the like.

[3] = test system: sentinel lymph node (mouse popliteal lymph node); assay: Accumulation in sentinel lymph node, absorbance of lymph node extracts; assay type: in vivo; conditions: 1 day after administration, 10 nmol dye, accumulation of ICG defined as 1
Experimental: In examples of the present invention, the transfer of the contrast agent for PAI into a sentinel lymph node (SLN) was evaluated by the use of a mouse popliteal lymph node. Ten microliters of the contrast agent was administered subcutaneously into the plantar surface of a nude mouse.
As a comparative example, mouse popliteal lymph nodes were removed 1 day after the administration of various contrast agents, homogenized, and extracted. The resulting extracts were subjected to absorbance measurement.
Accumulation rates were each calculated on the basis of the following formula: Accumulation rate={(absorbance of removed mouse popliteal lymph node)/(absorbance corresponding to amount of sample administered)}×100
After the calculation of the accumulation, the accumulation ratios of various materials were calculated when the accumulation 1 day after the administration of ICG was defined as 1.
According to “Evaluation example of accumulation in sentinel lymph node”, the accumulation in a sentinel lymph node was evaluated. In this example, 10 nmol of the contrast agent in terms of the amount of the dye was administered to a mouse.

[4] = Accumulation of contrast agent in Colon 26 tumor, dye extraction and fluorescence; assay type: in vivo; conditions: BALB/c Slc-nu/nu, mouse, intravenous, 13 nmol in terms of ICG
Experimental: (§2) Tumor model mice were prepared by subcutaneously implanting Colon 26 cells into BALB/c Slc-nu/nu mice.
(§3) Tumor model mice were prepared by subcutaneously implanting Colon 26 cells into BALB/c Slc-nu/nu mice. […] Furthermore, in this example, an aqueous solution of ICG (available from Pharmaceutical and Medical Device Regulatory Science of Japan) was used as a control sample.

[5] = Blood accumulation in Colon 26 tumor model mice; assay type: in vivo; conditions: BALB/c Slc-nu/nu, mouse, intravenous, 13 nmol in terms of ICG, read-out: Blood accumulation 1 day after administration
Experimental: as §2, §3

tumor site = assay: Photoacoustic signal intensity at tumor site 1 day after administration, relative to ICG; assay type: in vivo, mouse
Experimental: as §1

cerebral blood vessels = conditions: rat, free ICG administered in blood, NPL 1; cited from earlier work
[6] = known; cited from earlier work

CC1(C)C(/C=C/C=C/C=C/C=C2/N(CCCCS(=O)(=O)[O-])c3ccc4ccccc4c3C2(C)C)=[N+](CCCCS(=O)(=O)[O-])c2ccc3ccccc3c21.[Na+] [ICG, indocyanine green]
Hydrodynamic average particle size [1]: unmeasurable | Relative tumor accumulation (N87 cell line tumor): 1.0 | Visualization of SLN [2]: substantially no photoacoustic signal was observed; also recorded: unvisualizable | Relative accumulation [3]: 1.0 | Kp at 24 h ([4]; tumor / blood, 1 day after administration, read-out: Ratio of accumulation (tumor/blood)): 0.5 | tissue uptake at 24 h ([4]; tumor tissue (Colon 26), Colon 26 tumor, 24 hours, read-out: Tumor accumulation 1 day after administration): 0.1 %ID/g | tissue uptake at 1 day [5]: 0.2 %ID/g | Relative photoacoustic signal intensity 1 day after administration (signal intensity in administration of ICG = 1.0) (tumor site): 1.0 | time after administration at which photoacoustic signal intensity is reduced to a level equal to that of blood (cerebral blood vessels): several tens of minutes | half-life in blood [6]: about several minutes
